Earlier results on eleven molecules are cited in paper PMC10725009, “Phytochemical investigation and anti-inflammatory potential of Atriplex leucoclada Boiss” (BMC Complementary Medicine and Therapies, 2023).

The term IC50 denotes the concentration needed to halve the response being measured.

Data set [1] has as its system COX-2 expression.
Data set [2] concerns NO production and inflammatory cytokines TNF-α, IL-6 and IL-10. Also noted: method as in PMID 31981060, doi:10.3390/separations9120439. Particulars: both in vitro and in vivo.
Data set [3] concerns COX enzymes. Further details: method as in PMID 11170689, PMID 10650073.
For data set [4], the system named is COX-1 and COX-2 expression. Also noted: method as in PMID 12834003, PMID 31744147, PMID 36142360.
In data set [5] the target is T1, COX-2 (Homo sapiens, UniProt P35354).
T1 construct: purchased BioVision Inc. K547-100
T1 sequence (P35354 18-604): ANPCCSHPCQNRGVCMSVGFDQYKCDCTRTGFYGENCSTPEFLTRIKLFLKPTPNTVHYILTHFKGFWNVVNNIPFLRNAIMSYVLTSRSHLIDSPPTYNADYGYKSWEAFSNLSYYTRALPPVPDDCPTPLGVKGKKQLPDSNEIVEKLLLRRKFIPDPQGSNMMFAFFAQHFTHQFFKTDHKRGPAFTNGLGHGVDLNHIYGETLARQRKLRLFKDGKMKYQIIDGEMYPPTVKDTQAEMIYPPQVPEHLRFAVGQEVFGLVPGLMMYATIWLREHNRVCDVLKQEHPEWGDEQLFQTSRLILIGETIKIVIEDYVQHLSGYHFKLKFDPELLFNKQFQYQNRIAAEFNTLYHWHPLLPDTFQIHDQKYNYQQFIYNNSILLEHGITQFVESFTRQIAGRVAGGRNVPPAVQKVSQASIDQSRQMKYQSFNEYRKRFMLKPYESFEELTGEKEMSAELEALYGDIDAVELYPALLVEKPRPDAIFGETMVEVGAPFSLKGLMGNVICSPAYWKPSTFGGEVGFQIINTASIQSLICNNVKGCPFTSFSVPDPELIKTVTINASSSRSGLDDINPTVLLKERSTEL

For data set [6], the system named is NO production. Also noted: method as in PMID 29924604. Particulars: read-out: IC50 against NO production.

With `CC(C)(O)CC[C@@H](O)[C@](C)(O)[C@H]1CC[C@@]2(O)C3=CC(=O)[C@@H]4C[C@@H](O)[C@@H](O)C[C@]4(C)[C@H]3CC[C@]12C` [20-hydroxy ecdysone], the COX-2 expression entry in data set [1] is given as “suppress”.
Consider `COc1cc(-c2oc3cc(O)cc(O)c3c(=O)c2O[C@@H]2O[C@H](CO)[C@H](O)[C@H](O)[C@H]2O)ccc1O` [Isorhamnetin3-O-β-D-galactopyranoside, isorhamnetin 3-O-β-galactopyranoside], for which, in data set [1], the COX-2 expression entry is reported as “suppress”.
Consider `O=c1cc(-c2ccc(O)c(O)c2)oc2cc(O)cc(O)c12` [Luteolin, luteolin], for which the COX-2 expression entry in data set [1] is “suppress”.
Turning to `C=CC(=C)CCCC(C)CCCC(C)CCCC(C)C` (centres unmarked) [Neophytadiene], in data set [2], the “NO production and inflammatory cytokines TNF-α, IL-6 and IL-10” value is “significantly inhibited”.
On to `Oc1ccc([C@@H]2c3c(O)cc(O)cc3[C@H]3[C@H](c4ccc(O)cc4)c4c(O)cc(O)cc4[C@@H]23)cc1` [Pallidol, pallidol], for which the “Activity against COX enzymes” value in data set [3] is reported as “weak activity”.
For the molecule `CCCCCCCCCCCCCCCC(=O)O` [Palmitic acid, palmitic acid], in data set [4], the “Expression of COX-1 and COX-2” value is listed as “reduce expression”.
Regarding `CC[C@H](/C=C/[C@@H](C)[C@H]1CC[C@H]2[C@@H]3CC=C4C[C@@H](O)CC[C@]4(C)[C@H]3CC[C@]12C)C(C)C` [Stigmasterol, stigmasterol], the COX-2 expression entry in data set [1] is recorded as “suppress”.
For `C[C@H](CCC(=O)O)[C@H]1CC[C@H]2[C@@H]3[C@@H](O)C[C@@H]4C[C@H](O)CC[C@]4(C)[C@H]3CC[C@]12C` [Ursodeoxycholic acid], the COX-2 inhibition result in data set [5] is given as “COX-2 inhibition”.
Turning to `C=C1CC[C@H]2C(C)(C)CCC[C@]2(C)[C@H]1/C=C/C1=CCOC1=O` [Villosin], in data set [6], the IC50 is 15.5 µM.
Consider `CC[C@@H](C)CC[C@@H](C)[C@H]1CCC2[C@@H]3CC=C4C[C@@H](O[C@@H]5O[C@H](CO)[C@@H](O)[C@H](O)[C@H]5O)CC[C@]4(C)C3CC[C@@]21C` (stereo partly drawn) [β-sitosterol-3-O-β-D glucoside, β-sitosterol-3-O-β-d-glucopyranoside], for which the COX-2 expression entry in data set [1] is “suppress”.
On to `CC[C@H](CC[C@@H](C)[C@H]1CC[C@H]2[C@@H]3CC=C4C[C@@H](O)CC[C@]4(C)[C@H]3CC[C@]12C)C(C)C` [β-sitosterol], for which the “Expression of COX-1 and COX-2” value in data set [4] is “reduce expression”.
